Measured values as given in patent US20160082066A1, “Method Use of Polymethoxyflavones (PMFs) in Body Composition Management” (priority 2014, published 2016).

Experiments:
3T3-L1 preadipocytes [1] = test: Oil Red O lipid accumulation in differentiating 3T3-L1 preadipocytes; format: cell-based; details: DMI 2 days, then insulin medium with substance 8 days; absorbance at 520 nm; FIG. 1-3
Protocol: Ten days after the initiation of differentiation, lipid accumulation was measured by Oil Red O staining.
3T3-L1 preadipocytes were incubated with DMI (DMEM with IBMX, DEX and insulin) for two days, and then replaced with DMEM medium containing insulin with or without ECG, EGCG and PMFs at indicated concentrations, respectively for 8 days. The 3T3-L1preadipocytes were stained with Oil Red O and photographed. Lipid content was extracted from Oil Red O stained cells by 2-propanol and quantified with spectrophotometric analysis at 520 nm.
3T3-L1 preadipocytes were incubated with DMI (DMEM with IBMX, DEX and insulin) for two days, and then replaced with DMEM medium containing insulin with or without ECG, EGCG and PMFs at indicated concentrations, respectively for 8 days. The 3T3-L1preadipocytes were stained with Oil Red 0. Lipid content was extracted from Oil Red O stained cells by 2-propanol and quantified with spectrophotometric analysis at 520 nm.
3T3-L1 preadipocytes were incubated with DMI (DMEM with IBMX, DEX and insulin) for two days, and then replaced with DMEM medium containing insulin with or without Lychee extracts and PMFs, or in combination at indicated concentrations, respectively for 8 days. […] Lipid content was extracted from Oil Red O stained cells by 2-propanol and quantified with spectrophotometric analysis at 520 nm.

[2] = target: T1, catechol-O-methyltransferase (Homo sapiens, UniProt P21964); details: cited from earlier work
T1 sequence (P21964 1-271): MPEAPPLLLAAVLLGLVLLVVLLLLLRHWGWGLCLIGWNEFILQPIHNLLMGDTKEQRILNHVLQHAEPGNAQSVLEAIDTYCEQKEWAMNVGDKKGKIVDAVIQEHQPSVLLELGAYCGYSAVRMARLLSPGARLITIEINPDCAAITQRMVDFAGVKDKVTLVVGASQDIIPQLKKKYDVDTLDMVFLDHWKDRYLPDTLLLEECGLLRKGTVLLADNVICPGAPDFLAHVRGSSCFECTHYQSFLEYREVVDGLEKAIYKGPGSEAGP

[3] = EGCG stand alone; young, healthy adults; cited from earlier work
3T3-L1 preadipocytes [4] = details: tissue culture; cited from earlier work
[5] = tested on: high-fat diet-induced obesity in mice; details: cited from earlier work

SMILES | lipid accumulation in differentiated adipocytes (Oil Red O staining) (3T3-L1 preadipocytes [1]) | catechol-O-methyltransferase activity [2] | resting metabolic rate (RMR) and thermal effects of feeding (TEF) [3] | differentiation of 3T3-L1 preadipocytes into adipocytes (3T3-L1 preadipocytes [4]) | obesity and insulin resistance [5]
O=C(O[C@@H]1Cc2c(O)cc(O)cc2O[C@@H]1c1ccc(O)c(O)c1)c1cc(O)c(O)c(O)c1 [ECG, epicatechin gallates] | decreased only slightly |  |  |  | 
O=C(O[C@@H]1Cc2c(O)cc(O)cc2O[C@@H]1c1cc(O)c(O)c(O)c1)c1cc(O)c(O)c(O)c1 [EGCG, epigallocatechin gallates] | decreased only slightly | inhibits | would not increase |  | 
COc1ccc(-c2cc(=O)c3c(OC)c(OC)c(OC)c(OC)c3o2)cc1OC [nobiletin] |  |  |  | potently suppressing | alleviating obesity and insulin resistance
